The assay concerns the target T1, P2X7 receptor (Homo sapiens, UniProt Q99572).
T1 construct: host or cells: THP-1 cells differentiated with LPS and IFN-γ
T1 sequence (Q99572 1-595): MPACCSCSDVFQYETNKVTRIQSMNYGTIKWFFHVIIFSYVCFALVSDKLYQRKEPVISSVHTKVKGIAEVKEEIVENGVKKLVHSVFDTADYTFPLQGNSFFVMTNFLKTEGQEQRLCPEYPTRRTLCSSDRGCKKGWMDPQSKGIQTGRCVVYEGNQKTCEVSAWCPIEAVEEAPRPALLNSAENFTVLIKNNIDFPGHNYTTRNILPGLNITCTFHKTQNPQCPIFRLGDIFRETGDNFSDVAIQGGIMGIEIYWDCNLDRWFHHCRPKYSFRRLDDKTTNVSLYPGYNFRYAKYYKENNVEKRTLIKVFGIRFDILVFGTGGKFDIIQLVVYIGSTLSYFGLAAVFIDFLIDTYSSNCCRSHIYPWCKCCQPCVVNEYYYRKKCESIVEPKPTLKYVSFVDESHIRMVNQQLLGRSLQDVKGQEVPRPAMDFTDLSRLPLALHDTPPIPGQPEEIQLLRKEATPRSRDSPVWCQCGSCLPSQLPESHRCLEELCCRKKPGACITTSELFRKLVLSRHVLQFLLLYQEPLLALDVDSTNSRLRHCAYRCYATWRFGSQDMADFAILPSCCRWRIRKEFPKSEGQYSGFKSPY
Put plainly: IL-1β release assay in differentiated THP-1 cells stimulated with BzATP (Example 9). Type of assay: cell-based. The arrangement: inhibition: dose or concentration left out as unconfirmed. As to conditions: for inhibition: THP-1, read-out: IL-1β % Inhib.; for inhibition at 0.3 µM: 0.3 μM compound, read-out: IL-1β % Inhib. @ 0.3 μM; for inhibition at 0.3 µM / inhibition at 0.1 µM: differentiated THP-1 cells, BzATP 250 uM; for IC50: THP-1 cells, BzATP-stimulated IL-1β release, four parameter logistic fit; for inhibition at 0.1 µM: 0.1 μM compound. In a few lines:
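THP-1 cells differentiated 16 h with LPS and IFN-γ (100 ng/mL each), re-primed 2 h with LPS, then compound-pretreated 30 min before 250 uM BzATP for 45 min. Supernatant IL-1β quantified by ELISA; background-adjusted percent inhibition fitted to four-parameter logistic for IC50.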

Where two headings read alike, the source gives them in different places. A value given as a limit tells only on which side of the number the result lay.

Turning to `O=C(CCc1ccc2c(c1)OCO2)Nc1cccc2c(=O)n(Cc3ccc(OC(F)(F)F)cc3)ccc12` [Compound 1558], the inhibition lay in the range of 0 to 25%. On to `Cn1ccc2c(NC(=O)[C@@]34C[C@@H]5C[C@@H](C[C@@H]3C5)C4)cccc2c1=O` [Compound 1303], for which the inhibition at 0.3 µM (symbols + to ++++) lay in the range of 0 to 25%. On to `Cc1ccccc1CCC(=O)Nc1cccc2c(=O)n(CC3CCN(C)CC3)ccc12` [Compound 1457], for which the inhibition fell in the range of 0 to 25%. Take `CN(C)CCn1ccc2c(NC(=O)Cc3ccccc3Cl)cccc2c1=O` [Compound 1155]: the inhibition at 0.3 µM ('+' class symbols) was 0 to 25%.

For `Cc1ccc(C)c(CC(=O)Nc2cccc3c(=O)n(Cc4ccc(OC(F)(F)F)cc4)ccc23)c1` [Compound 1554], the inhibition was in the range of 0 to 25%.

Consider `COc1cc(CC(=O)Nc2cccc3c(=O)n(CCN(C)C)ccc23)cc(OC)c1` [Compound 1164], for which the inhibition at 0.3 µM ('+' class symbols) lay within 0 to 25%. Turning to `O=C(Cc1ccccc1F)Nc1cccc2c(=O)n(Cc3cccnc3)ccc12` [Compound 1449], the inhibition was in the range of 26 to 50%. Regarding `Cc1ccccc1CC(=O)Nc1cccc2c(=O)n(C)ccc12` [Compound 1296], the inhibition at 0.3 µM (symbols + to ++++) lay within 0 to 25%. As to `COc1ccccc1CCC(=O)Nc1cccc2c(=O)n(CC3CCOCC3)ccc12` [Compound 1094], for the setting “'+' class symbols”, the inhibition at 0.3 µM lay within 0 to 25%. As for `O=C(CCc1ccc2c(c1)OCO2)Nc1cccc2c(=O)n(Cc3cccnc3)ccc12` [Compound 1080], the inhibition at 0.3 µM ('+' class symbols) fell in the range of 0 to 25%. With `Cc1ccc(C(=O)Nc2cccc3c(=O)n(Cc4ccc(OC(F)(F)F)cc4)ccc23)c(C)c1` [Compound 1564], the inhibition lay in the range of 0 to 25%. The same measure, in the same setting: for `COCCn1ccc2c(NC(=O)Cc3ccccc3C)cccc2c1=O` [Compound 1438] the value was 26 to 50%. As to `COc1ccc(CCC(=O)Nc2cccc3c(=O)n(CCN(C)C)ccc23)cc1` [Compound 1150], the inhibition at 0.3 µM ('+' class symbols) lay within 0 to 25%.

For the molecule `COCCn1ccc2c(NC(=O)Cc3ccc(OC)c(OC)c3)cccc2c1=O` [Compound 1314], where the note is “symbols + to ++++”, the inhibition at 0.3 µM lay in the range of 0 to 25%. As a reminder, the IC50 is the midpoint of a concentration-inhibition curve. On to `CC(C)(C)OC(=O)N1CCC[C@H]1Cn1ccc2c(NC(=O)Cc3ccc(Cl)c(C(F)(F)F)c3)cccc2c1=O` [Compound 1621], for which the midpoint of inhibition, the IC50, lay at 6.86 nM. For the same molecule, the inhibition at 0.3 µM ("+" class symbols) is not below 76%. With `Cc1ccc(CC(=O)Nc2cccc3c(=O)n(C)ccc23)cc1` [Compound 1423], the inhibition lay within 0 to 25%. Molecule `CC(=O)OCCn1ccc2c(NC(=O)CC3(O)CCCCCC3)cccc2c1=O` [Compound 1015] registered an IC50 of 171 nM. The inhibition at 0.3 µM ('+' class symbols) is not below 76%. Regarding `CS(=O)(=O)CCn1ccc2c(NC(=O)CC3(O)CCCCCC3)cccc2c1=O` [Compound 1625], the IC50 was more than 1000 nM. For the same molecule, the inhibition at 0.3 µM ("+" class symbols) was 0 to 25%.

For the molecule `CCOc1cccc(C(=O)Nc2cccc3c(=O)n(Cc4cccnc4)ccc23)c1` [Compound 1407], the inhibition lay within 0 to 25%. Consider `COc1cccc(CCC(=O)Nc2cccc3c(=O)n(CC4CCOCC4)ccc23)c1` [Compound 1027], for which the inhibition at 0.3 µM ('+' class symbols) lay in the range of 0 to 25%.

In the case of `COc1ccc(CC(=O)Nc2cccc3c(=O)n(CC4CCOCC4)ccc23)c(OC)c1` [Compound 1123], the inhibition at 0.3 µM ('+' class symbols) was 0 to 25%. `Cc1ccc(C)c(C(=O)Nc2cccc3c(=O)n(CC4CCN(C)CC4)ccc23)c1` [Compound 1463]: the inhibition fell in the range of 0 to 25%. `CC(C)Cc1ccc(C(=O)Nc2cccc3c(=O)n(CC(C)(C)C)ccc23)cc1` [Compound 1288]: where the note is “symbols + to ++++”, the inhibition at 0.3 µM lay within 0 to 25%. Turning to `CCOc1ccc(C(=O)Nc2cccc3c(=O)n(CCOC)ccc23)cc1` [Compound 1429], the inhibition was in the range of 0 to 25%.

Take `COc1ccc(CC(=O)Nc2cccc3c(=O)n(CC(C)(C)C)ccc23)cc1C` [Compound 1281]: the inhibition at 0.3 µM (symbols + to ++++) lay within 26 to 50%. On to `COCCn1ccc2c(NC(=O)Cc3cccc4ccccc34)cccc2c1=O` [Compound 1433], for which the inhibition was 0 to 25%. With `Cc1ccccc1CCC(=O)Nc1cccc2c(=O)n(CCN(C)C)ccc12` [Compound 1399], the inhibition is 0 to 25%. As for `O=C(CCc1ccccc1Cl)Nc1cccc2c(=O)n(CCN3CCOCC3)ccc12` [Compound 1045], for the setting “'+' class symbols”, the inhibition at 0.3 µM was 0 to 25%.

On to `Cc1ccc(CC(=O)Nc2cccc3c(=O)n(Cc4cccnc4)ccc23)cc1` [Compound 1356], for which, under “symbols + to ++++”, the inhibition at 0.3 µM was 0 to 25%. With `Cc1ccc(C)c(C(=O)Nc2cccc3c(=O)n(CCN(C)C)ccc23)c1` [Compound 1142], where the note is “'+' class symbols”, the inhibition at 0.3 µM fell in the range of 0 to 25%. In turn, `CC(C)(C)OC(=O)N1CCC[C@H]1Cn1ccc2c(NC(=O)CC3CCCCCC3)cccc2c1=O` [Compound 1619] showed an IC50 of 67.2 nM. Moreover, the inhibition at 0.3 µM ("+" class symbols) is not below 76%. Take `CC(C)(C)Cn1ccc2c(NC(=O)Cc3ccc4c(c3)OCO4)cccc2c1=O` [Compound 1265]: the inhibition at 0.3 µM (symbols + to ++++) was 26 to 50%. Turning to `Cc1cc(C)cc(CC(=O)Nc2cccc3c(=O)n(CCN(C)C)ccc23)c1` [Compound 1173], the inhibition at 0.3 µM ('+' class symbols) lay within 0 to 25%. For `COc1c(C)cc(C(=O)Nc2cccc3c(=O)n(CCN4CCOCC4)ccc23)cc1C` [Compound 1219], where the note is “symbols + to ++++”, the inhibition at 0.3 µM was 26 to 50%. Take `CN(C)CCn1ccc2c(NC(=O)c3ccc(C(C)(C)C)cc3)cccc2c1=O` [Compound 1147]: the inhibition at 0.3 µM ('+' class symbols) lay in the range of 0 to 25%.

Consider `Cc1cc(Cl)ccc1C(=O)Nc1cccc2c(=O)n(CCN(C)C)ccc12` [Compound 1166], for which the inhibition at 0.3 µM ('+' class symbols) lay within 0 to 25%.

For `CC(C)(C)Cn1ccc2c(NC(=O)Cc3ccccc3Cl)cccc2c1=O` [Compound 1253], the inhibition at 0.3 µM (symbols + to ++++) was in the range of 0 to 25%. With `O=C(Nc1cccc2c(=O)n(CCN3CCOCC3)ccc12)c1ccc(Cl)cc1Cl` [Compound 1189], the inhibition at 0.3 µM ('+' class symbols) lay in the range of 0 to 25%. Turning to `O=C(Cc1ccc2c(c1)OCO2)Nc1cccc2c(=O)n(CCCN3CCCC3=O)ccc12` [Compound 1527], the inhibition lay within 0 to 25%. Consider `CN(C)CCn1ccc2c(NC(=O)[C@@]34C[C@@H]5C[C@@H](C[C@@H]3C5)C4)cccc2c1=O` [Compound 1168], for which the inhibition at 0.3 µM ('+' class symbols) was in the range of 0 to 25%. As to `Cc1ccc(Cl)cc1C(=O)Nc1cccc2c(=O)n(Cc3cccnc3)ccc12` [Compound 1368], for the setting “symbols + to ++++”, the inhibition at 0.3 µM fell in the range of 0 to 25%. Turning to `CCOc1cccc(C(=O)Nc2cccc3c(=O)n(Cc4ccc(OC(F)(F)F)cc4)ccc23)c1` [Compound 1556], the inhibition is 0 to 25%. Still for that read-out and setting: for `O=C(Nc1cccc2c(=O)n(CCCN3CCCC3=O)ccc12)c1ccc(-c2ccccc2)cc1` [Compound 1515] the value was 0 to 25%. For the molecule `COc1ccc(C(=O)Nc2cccc3c(=O)n(CCN4CCOCC4)ccc23)cc1Cl` [Compound 1043], the inhibition at 0.3 µM ('+' class symbols) was in the range of 0 to 25%. In the case of `COCCn1ccc2c(NC(=O)Cc3cccc(OC)c3)cccc2c1=O` [Compound 1439], the inhibition lay in the range of 0 to 25%. Same read-out and setting: as for `COc1ccc(CCC(=O)Nc2cccc3c(=O)n(Cc4ccc(OC(F)(F)F)cc4)ccc23)cc1` [Compound 1572], the figure is 0 to 25%. For the molecule `Cc1cc(C)cc(CC(=O)Nc2cccc3c(=O)n(CC4CCOCC4)ccc23)c1` [Compound 1121], the inhibition at 0.3 µM ('+' class symbols) lay in the range of 0 to 25%. Same read-out and setting: as for `COc1cccc(CC(=O)Nc2cccc3c(=O)n(CC4CCOCC4)ccc23)c1` [Compound 1102], the figure is 0 to 25%. In the case of `O=C(Cc1cccc2ccccc12)Nc1cccc2c(=O)n(Cc3cccnc3)ccc12` [Compound 1350], the inhibition at 0.1 µM (symbols * to ****, read-out: IL-1β % Inhib. (asterisk symbols: at 0.1 μM)) was 0 to 25%. On to `CN1CCC(Cn2ccc3c(NC(=O)CCc4cccc(Cl)c4)cccc3c2=O)CC1` [Compound 1492], for which the inhibition lay within 0 to 25%. Consider `CCOc1ccccc1CC(=O)Nc1cccc2c(=O)n(CCN(C)C)ccc12` [Compound 1177], for which the inhibition at 0.3 µM ('+' class symbols) lay within 0 to 25%. Regarding `O=C(Cc1ccccc1Cl)Nc1cccc2c(=O)n(CCN3CCOCC3)ccc12` [Compound 1205], the inhibition at 0.3 µM (symbols + to ++++) is 0 to 25%. Regarding `O=C(Nc1cccc2c(=O)n(CC3CCOCC3)ccc12)C1C[C@@H]2CC[C@H]1C2` (some centres unmarked) [Compound 1122], the inhibition at 0.3 µM ('+' class symbols) was 0 to 25%. For `COc1cccc(CC(=O)Nc2cccc3c(=O)n(CC(C)(C)C)ccc23)c1` [Compound 1257], the inhibition at 0.3 µM (symbols + to ++++) was in the range of 0 to 25%. `Cc1cc(C)cc(CC(=O)Nc2cccc3c(=O)n(Cc4ccc(OC(F)(F)F)cc4)ccc23)c1` [Compound 1599]: for the setting “"*" class symbols, read-out: IL-1β % Inhib. ("*" symbols: at 0.1 μM)”, the inhibition at 0.1 µM lay within 0 to 25%.

In the case of `Cc1cccc(CCC(=O)Nc2cccc3c(=O)n(CC4CCOCC4)ccc23)c1` [Compound 1130], under “'+' class symbols”, the inhibition at 0.3 µM was 0 to 25%.

Take `O=C(CCCc1ccccc1)Nc1cccc2c(=O)n(Cc3cccnc3)ccc12` [Compound 1357]: the inhibition at 0.3 µM (symbols + to ++++) lay in the range of 0 to 25%. Turning to `C[C@H]1CC[C@H](C(=O)Nc2cccc3c(=O)n(CCCN4CCCC4=O)ccc23)CC1` [Compound 1494], the inhibition fell in the range of 0 to 25%.
